The numbers were not newly measured in US20060240101A1, “Orally disintegrating pharmaceutical tablet formulations of olanzapine” (priority 2005, published 2006), which cites them from elsewhere.

Structures are written as SMILES.

The conditions of the data set: for water solubility: at 20° C.

Take `OC[C@@H](O)[C@@H](O)[C@H](O)[C@H](O)CO` [Pearlitol® 50C, mannitol]: the water solubility entry is reported as “approximately 250 g/l”.
Regarding `OC[C@@H](O)[C@@H](O)[C@H](O)[C@H](O)CO` [Pearlitol® 200 SD, mannitol], the water solubility entry is “approximately 170 g/l”.
With `Cc1cc2c(s1)Nc1ccccc1N=C2N1CCN(C)CC1` [olanzapine, 2-methyl-4-(4-methyl-1-piperanzinyl)-10H-thieno[2,3-b][1,5] benzodiazepine], the solubility in water entry (2005 Physician Desk Reference label information for Zyprexa) is “insoluble in water”.
